Test results from BindingDB's records for doi:10.7270/Q2319T8T (The Scripps Research Institute Molecular Screening Center, 2007).
Structures can show the parent of a compound that is named as a salt.

Target: Steroidogenic factor 1 (Homo sapiens, UniProt Q13285)
Experiment: SF-1 inhibitor potency, dose response, cell-based, CHO-K1, Gal4-SF-1 LBD, luciferase luminescence (AID 600)
[1] = inactive by the depositor's call

Chain of Steroidogenic factor 1 (Q13285 whole entry, the tested form may be a part): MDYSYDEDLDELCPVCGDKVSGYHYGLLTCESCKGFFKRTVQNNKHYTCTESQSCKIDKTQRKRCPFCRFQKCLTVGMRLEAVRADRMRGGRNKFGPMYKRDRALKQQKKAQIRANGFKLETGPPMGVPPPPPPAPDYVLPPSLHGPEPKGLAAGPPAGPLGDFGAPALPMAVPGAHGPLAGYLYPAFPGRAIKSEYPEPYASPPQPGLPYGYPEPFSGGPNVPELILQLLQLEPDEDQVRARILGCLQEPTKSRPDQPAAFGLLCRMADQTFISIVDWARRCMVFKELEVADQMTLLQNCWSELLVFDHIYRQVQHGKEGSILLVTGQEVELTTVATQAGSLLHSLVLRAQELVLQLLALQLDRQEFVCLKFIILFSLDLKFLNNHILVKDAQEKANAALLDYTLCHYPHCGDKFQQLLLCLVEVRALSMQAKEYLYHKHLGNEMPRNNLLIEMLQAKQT

| Structure (SMILES) | IC50 [µM] | IC50 [1] [µM] |
| --- | --- | --- |
| COc1cccc(NC(=O)CSc2nnc(-c3cc(C)n(-c4ccccc4)c3C)o2)c1 [2-[[5-(2,5-dimethyl-1-phenyl-3-pyrrolyl)-1,3,4-oxadiazol-2-yl]thio]-N-(3-methoxyphenyl)acetamide] | 3.4 |  |
| CCOC(=O)c1c(N)sc(C(=O)Nc2ccc3c(c2)OCO3)c1C [2-amino-5-(1,3-benzodioxol-5-ylcarbamoyl)-4-methyl-thiophene-3-carboxylic acid ethyl ester] | > 3.67 |  |
| CCN(CC)c1ccc2c(c1)OC(=N)C(C#N)C2c1cccnc1 (stereo unspecified) [2-amino-7-(diethylamino)-4-(3-pyridinyl)-4H-1-benzopyran-3-carbonitrile] | > 3.67 |  |
| CN(C)c1ccc2c(c1)OC(=N)C(C#N)C2c1cccc(F)c1 (stereo unspecified) [2-amino-7-(dimethylamino)-4-(3-fluorophenyl)-4H-1-benzopyran-3-carbonitrile] | 10.9 |  |
| COc1cc(C2c3ccc(N(C)C)cc3OC(=N)C2C#N)cc2c1OCO2 (stereo unspecified) [2-amino-7-(dimethylamino)-4-(7-methoxy-1,3-benzodioxol-5-yl)-4H-1-benzopyran-3-carbonitrile] | > 3.67 |  |
| CCc1nn2cc(-c3ccccc3)nc2s1 [2-ethyl-6-phenyl-imidazo[2,1-b][1,3,4]thiadiazole] | 4.41 |  |
| CCCc1ccc(-c2ccc(F)c(N)c2)nc1 [2-fluoranyl-5-(5-propylpyridin-2-yl)aniline] | 7.35 |  |
| c1ccc(-c2nc(NCc3ccco3)c3ccccc3n2)nc1 [2-furfuryl-[2-(2-pyridyl)quinazolin-4-yl]amine] | 6.79 |  |
| O=C(c1ccc2c3c(cccc13)C(=O)N(O)C2=O)N1CCCCC1 [2-hydroxy-6-(piperidine-1-carbonyl)benzo[de]isoquinoline-1,3-dione] | 1.92 |  |
| COc1cc(C2C3=C(N=C(C)C2C#N)c2ccccc2C3=O)cc(OC)c1OC (stereo unspecified) [2-methyl-5-oxidanylidene-4-(3,4,5-trimethoxyphenyl)-1,4-dihydroindeno[1,2-b]pyridine-3-carbonitrile] | > 1.22 |  |
| c1ccc(-c2cn3c4c(sc3n2)CCCC4)cc1 [2-phenyl-5,6,7,8-tetrahydroimidazo[2,1-b][1,3]benzothiazole] | 4.54 |  |
| N#CC(C#N)=c1ccc2c(c1)NC1(CCCCC1)N=2 [2-spiro[3H-benzimidazole-2,1'-cyclohexane]-5-ylidenepropanedinitrile] |  | 10.1 |
| c1csc(CNc2ncnc3sccc23)c1 [2-thenyl(thieno[2,3-d]pyrimidin-4-yl)amine] | 3.49 |  |
| COc1cc(C(=O)Oc2c(CN3CCOCC3)cc(Cl)c3cccnc23)cc(OC)c1OC [3,4,5-trimethoxybenzoic acid [5-chloro-7-(4-morpholinylmethyl)-8-quinolinyl] ester] |  | 12.3 |
| Cc1nn(-c2ccccc2)c(C)c1C(=O)OCC(=O)c1c(N)n(CC(C)C)c(=O)n(C)c1=O [3,5-dimethyl-1-phenyl-4-pyrazolecarboxylic acid [2-[4-amino-1-methyl-3-(2-methylpropyl)-2,6-dioxo-5-pyrimidinyl]-2-oxoethyl] ester] |  | 30.3 |
| c1ccc(-c2ccc(-c3ccccn3)nn2)nc1 [3,6-bis(2-pyridinyl)pyridazine] | > 11 |  |
| Cc1ccc(-c2nc3nc4ccccc4nc3n2Cc2ccco2)cc1 [3-(2-furanylmethyl)-2-(4-methylphenyl)imidazo[4,5-b]quinoxaline] | 6.89 |  |
| CCOc1ccc(-c2noc(CCC(=O)O)n2)cc1 [3-(3-p-phenetyl-1,2,4-oxadiazol-5-yl)propionic acid] | 3.89 |  |
| Cc1ccc(-c2cc3c(nn2)-c2ccccc2C3=O)cc1 [3-(4-methylphenyl)-5H-indeno[1,2-c]pyridazin-5-one] |  | 13 |
| CN(C)CC(C(=O)c1ccccc1)c1ccccc1 (stereo unspecified) [3-(dimethylamino)-1,2-diphenyl-1-propanone;hydrochloride] | > 3.67 |  |
| COc1cc(OC)cc(-c2cc3nc(C)c(CCC(=O)O)c(C)n3n2)c1 [3-[2-(3,5-dimethoxyphenyl)-5,7-dimethyl-6-pyrazolo[1,5-a]pyrimidinyl]propanoic acid] | 0.625 |  |
